In a melting point compilation (Tetko et al.; mined from patent text by program, amines drawn as free bases though some values may be those of a salt) one finds melting point data, which are given here for 86 molecules.

On to `CCCCCCCCCCCCCCCCCCOc1cc(OCCCBr)cc(N(CC(=O)OC)CC(=O)OC)c1`, for which the melting point (commonly the temperature, or range, at which the solid turns liquid) is 67 to 69 °C. The figure for `CC(C)(C)N1CC2(CCNCC2)OC1=O` is 108 to 111 °C. For `c1ccc(Cc2cccnn2)cc1`, the melting point was 61 to 64 °C. `CCN1CCN(Cc2cc(C)c3c(c2)-c2[nH]nc(-c4ccsc4)c2C3)CC1` showed a melting point of 230 to 231 °C.

Molecule `COc1cccc(OC)c1-c1ccc(C[C@H](NC(=O)c2c(Cl)cc(-c3ccc[nH]3)cc2Cl)C(=O)O)cc1` showed a melting point of 250 °C. With `CC[C@H]1c2ccc(C#N)n2-c2cc(F)c(F)cc2N1S(=O)(=O)c1ccc(OS(N)(=O)=O)cc1`, the melting point was in the range of 196 to 201 °C.

`O=C(O)C1Cc2cc3c(-c4ccccc4F)noc3cc2O1` (stereo unspecified) yielded a melting point of 194 to 196 °C. Regarding `COc1cc(CNc2nc(C)nc(C)c2Cl)ccc1O`, the melting point was in the range of 179 to 182 °C. The figure for `CC(=O)N1CC(CCN2CC=CCC2c2ccc(C(F)(F)F)cc2)c2ccccc21` (stereo unspecified) is 85 to 88 °C. For the molecule `O=C(Nc1ccc(-n2nc(-c3ccccc3)c3cccnc32)cc1)C(F)(F)F`, the melting point lay within 172 to 174 °C. In the case of `CCOC(=O)CC(=O)Nc1c(C(=O)OC)cccc1C(F)(F)F`, the melting point turned out to be 87 °C. In the case of `Cc1cc(O)c(CC(=O)OC(C)C)cc1O` it was 123 °C; in that of `CN(c1cccc2cc(C(N)=O)[nH]c12)S(=O)(=O)c1cccs1`, 244 to 245 °C; in that of `CNC(=O)C(=NOCF)c1ccccc1Oc1ncnc(Oc2ccccc2Cl)c1F`, 128 to 129 °C. The molecule `Cn1ccnc1Sc1ccc(Nc2c(C#N)cnc3cc(N4CCC(N5CCCC5)CC4)c([N+](=O)[O-])cc23)cc1Cl` registered a melting point of 220 to 230 °C. For the molecule `O=Cc1cccc(OCc2ccc3ccccc3n2)c1`, the melting point lay in the range of 48 to 53 °C.

Regarding `CCC(Oc1ccc(C)cc1C)C(=O)OC1CC(O)C=C2C=CC(C)C(CCC3CC(O)CC(=O)O3)C21` (mixture of isomers), the melting point was in the range of 159 to 160 °C. In the case of `COC1(c2ccc(OC(C)=O)cc2)Sc2ccccc2N(C)C1=O` (stereo unspecified) it was 144 to 146 °C; in that of `CC1=C2C3C(C)CC4=CC(=O)CCC4C3CCC2(C)C(O)C1` (stereo unspecified), 164 to 167 °C; in that of `CCOCCc1c(-c2ccc(Cl)cc2)nc(N)n2ncnc12`, 183 to 185 °C. `COCOc1c(-c2ccc(C(=O)O)cc2)cccc1-c1ccc2c(c1)C(C)(C)CCC2(C)C` returned a melting point of 74 °C.

`CCOc1ccccc1C(=O)c1oc2ccc(Cl)cc2c1N` showed a melting point of 114 to 115 °C.

For the molecule `O=C1OC2(CCNCC2)CN1Cc1ccccc1`, the melting point was 69 to 71 °C. The molecule `COc1ccc(COC(=O)C2N(c3c(C)cccc3C)C(=N)C(C)N2c2c(C)cccc2C)cc1` (stereo unspecified) gave a melting point of 135 to 137 °C.

`CN(Cc1ccc(NC(=O)C2=Cc3cc(-c4ccc(Cl)cc4)ccc3OCC2)cc1)C1CCOCC1` registered a melting point of 191 to 192 °C. In the case of `O=c1c(-c2ccc(F)cc2)coc2cc(O)c(O)cc12`, the melting point was found to be 296 °C. `COC1=C(OC)C(=O)C(CCCCCCCCCCOC(C)=O)=C(C)C1=O`: the melting point turned out to be 38 °C. Regarding `COc1cc(C(=O)NN2CCN(C)CC2)ccc1Nc1ncc2c(n1)N(C1CCCC1)CC(F)(F)C(=O)N2C`, the melting point lay within 168 to 174 °C. `Cc1ccc(-c2ccc3c(c2)C=C(C(=O)Nc2ccc(CCl)cc2)CC3)cc1` showed a melting point of 178 to 179 °C. In the case of `CCCc1ccc(S(=O)(=O)c2ccc(F)cc2)cc1S(=O)(=O)NCCc1cccnc1`, the melting point was 111 to 113 °C.

The molecule `Cc1ccc2c(n1)C(=O)N(c1cccc3ccccc13)C2=O` had a melting point of 200 to 205 °C.

Regarding `CC(C)c1cc(CCC(=O)OCC(C)(C)C2OCC3(CO2)COC(C(C)(C)COC(=O)CCc2cc(C(C)C)c(O)c(C(C)(C)C)c2)OC3)cc(C(C)(C)C)c1O` (stereo unspecified), the melting point lay within 47 to 57 °C. `CCOC(=O)CN(CC(=O)OCC)Cc1ccc2cc(N)c3ccc(CN(CC(=O)OCC)CC(=O)OCC)nc3c2n1` displayed a melting point of 137 to 139 °C.

`CCCCNC(=O)Oc1cccc(NC(=O)C=C(CCC)OC)c1` registered a melting point of 150 °C. In turn, `Cc1ccc(NC(=O)N2CCC(=C(F)c3cccc(Oc4ccc(C(F)(F)F)cn4)c3)CC2)cn1` gave a melting point of 158 to 160 °C.

For the molecule `CSc1ccc(NC(=N)c2ccc(F)cc2)cc1`, the melting point is 121 to 124 °C. As to `CC(Oc1ccc2nc(N)sc2c1)c1c(F)ccc(Cl)c1F` (stereo unspecified), the melting point is 160 °C. For the molecule `CCOC(=O)C=CCOc1ccc(C23CC4CC(CC(C4)C2)C3)cc1`, the melting point fell in the range of 91 to 93 °C. The molecule `COc1ccccc1NC(=O)Nc1cccc(-n2c(=O)c(CCC(=O)N(C)C)nc3cccnc32)c1` gave a melting point of 242 to 245 °C. The molecule `COc1ccc(-c2nc(C)c(Cl)[nH]2)cc1` came in with a melting point of 182 to 186 °C. As to `Cn1c(Sc2cccc(C(F)(F)F)c2)nc2c(-c3cccc(C(=O)NCCO)c3)cccc21`, the melting point lay within 138 to 139 °C.

In the case of `Cc1ccc2[nH]c3c(c2c1)CC(C)CC3` (stereo unspecified), the melting point came out at 112 °C. `CCOc1c(Br)ccc(C(=O)CC(=O)C2CC2)c1N(C)S(C)(=O)=O` had a melting point of 120 to 122 °C.

`CCN(C(C)=O)c1ccc(O)cc1` had a melting point of 183 to 185 °C. In turn, `COc1cc2c(=O)n(C(C)CN(C)C)c3c4cc5c(cc4ncc3c2cc1OC)OCO5` (stereo unspecified) registered a melting point of 186 to 187 °C. `COc1ccc(C(=O)Cc2ccncc2)c2c1OCC2C` (stereo unspecified): the melting point is 111 to 117 °C.

With `O=[N+]([O-])c1nccn1CC(O)CN1C2CCCCCC21` (stereo unspecified), the melting point lay in the range of 91 to 91.5 °C. In turn, `c1ccc2c(c1)CCN(Cc1n[nH]c3c1CCc1ccccc1-3)C2` yielded a melting point of 180 to 182 °C. For `CCOc1cc(Cc2cnc(N)nc2N)cc2c1OC(C)(C)C=C2C`, the melting point fell in the range of 216 to 218 °C.

For the molecule `Cc1cc(CC(=O)c2ccccc2)on1`, the melting point lay in the range of 73 to 74 °C.

Molecule `Clc1cccc(C(c2ccnc3ccccc23)n2ccnc2)c1` (stereo unspecified) showed a melting point of 184 °C.

For `C=CC(=O)N1C(C)(C)CC(OC(=O)C(C#N)(Cc2cc(C(C)(C)C)c(O)c(C(C)(C)C)c2)Cc2cc(C(C)(C)C)c(O)c(C(C)(C)C)c2)CC1(C)C`, the melting point amounted to 174 °C. Molecule `CCN(C1CC(C)(C)Oc2ccc(O)cc21)S(C)(=O)=O` (stereo unspecified) showed a melting point of 169 to 170 °C. The figure for `CCc1ccc(-c2nc(-c3ccccc3Cl)nn2C)c(Cl)c1` is 75.5 to 77.5 °C; for `COC1CCc2c(C)c(O)c(C)c(C)c2O1` (stereo unspecified) it is 108 to 110 °C; for `CCOCCn1c(C(=O)C2CCN(C(=O)OC(C)(C)C)CC2)nc2ccccc21` it is 96 to 98 °C. In the case of `C[C@H]1CN(C(=O)OC(C)(C)C)S(=O)(=O)O1`, the melting point was in the range of 123 to 125 °C. In the case of `N#Cc1ccc(CN2C(=O)C3(COc4cc5c(cc43)CCO5)c3ccccc32)cc1` (stereo unspecified) it was 69 to 71 °C. In the case of `CN(C)Cc1cc(C(C)(C)c2cc(CN(C)C)c(O)c(CN(C)C)c2)cc(CN(C)C)c1O` it was 88 to 90 °C; in that of `CC(=O)OCC1OC(n2cc(Cc3ccc(Br)cc3)c3c(C)cccc32)C(OC(C)=O)C(OC(C)=O)C1OC(C)=O` (stereo unspecified), 190 to 192 °C; in that of `COC(=O)N=C(NC(=O)OC)Nc1ccc(SCC(C)C)cc1NC(=O)CSC`, 138 to 140 °C. For the molecule `Cc1c(C)c2c(c(C)c1C=O)OC(C)(C)C2`, the melting point amounted to 93 °C. Molecule `CCOC(=O)c1cn2c(ccc3c(Cl)cccc32)n1` had a melting point of 193 to 194 °C.

The molecule `CN1CC(c2ccc(OC(F)(F)F)cc2)(c2ccc(F)c(-c3cccnc3F)c2)N=C1N` (stereo unspecified) came in with a melting point of 65 to 70 °C. In the case of `O=c1[nH]c(=O)n(CCCCBr)c2ccc(Cl)cc12`, the melting point was in the range of 154 to 156 °C. The figure for `O=C(O)C1CCN(c2ccc3nc4[nH]c(=O)[nH]c4cc3c2)CC1` is above 310 °C; for `CCOC(=O)c1nnc(-c2ccc(S(C)=O)cc2)o1` (stereo unspecified) it is 129 to 131 °C; for `Cc1nc(-c2ccccc2)nc(-c2cccc([N+](=O)[O-])c2)c1C(C)Br` (stereo unspecified) it is 133 to 134 °C. `CCN(CC)c1ncnc2nc(-c3ccncc3)[nH]c12` came in with a melting point of 260 to 262 °C. The figure for `CC(=O)c1ccc2c(c1)C(=O)C=C(C)C2=O` is 126 °C; for `Oc1ccc(N2CCN(Cc3c[nH]c4ncccc34)CC2)cc1` it is 197 to 200 °C. Molecule `CCOC(=O)/C(=N\O[C@H]1CCC[C@@H](C)C1)c1csc(N)n1` (relative stereo) showed a melting point of 91 to 93 °C. The figure for `CCCC[C@]1(CC)CS(=O)(=O)c2cc(O)c(OC)cc2[C@@H](c2ccccc2)N1` is 165 to 166 °C.

As for `OCC(O)COc1ccc(Br)cc1` (stereo unspecified), the melting point lay within 69 to 75 °C.

`CC(C)(C)c1cc(NC(=O)Nc2ccc(OCCN3CCOCC3)c3ccccc23)n(-c2ccccc2)n1` came in with a melting point of 142 to 143 °C.

For the molecule `COc1ccc(C2Sc3c(ccc4ccccc34)N(CCN(C)C)C(=O)C2OC(=O)c2ccc(OC)c(OC)c2)cc1` (stereo unspecified), the melting point is 182 to 183 °C. As to `CCCCNc1c(C(=O)OCC)cnc2cn[nH]c12`, the melting point lay in the range of 86 to 95 °C. Turning to `CCC1(CCCCl)C(=O)Nc2ccccc21` (stereo unspecified), the melting point lay in the range of 91 to 93 °C. The molecule `Cc1cc(C)cc(C(=O)c2c(-c3ccc(OCC(O)CNC(C)C)cc3)oc3ccccc23)c1` (stereo unspecified) had a melting point of 154 to 157 °C.

As for `Oc1ccc2c(c1)CCCC(c1ccccc1)=C2c1ccc(OCCCCCCSCc2ccccn2)cc1`, the melting point came out at 127 °C. `CC1(C)Oc2cc(N)c(C#N)cc2[C@@H](N2CCCC2)[C@@H]1O` (relative stereo) yielded a melting point of 158 to 160 °C. In the case of `OCCCN1CCN(C2=Nc3ccccc3Cn3c2cc2ccccc23)CC1` it was 174 to 175 °C. Take `Cc1nnc(-c2cccs2)c(=O)n1N`: the melting point came to 210 °C. `CCC(C)(C(=O)N(C)C)n1cc(C)c(-c2ccccc2)n1` (stereo unspecified) had a melting point of 102 to 104 °C.

Molecule `CN1CCN(CCNc2ncnc3c2sc2nc(N4CCCC4)c4c(c23)CC(C)(C)OC4)CC1` came in with a melting point of 97.5 to 98.8 °C. Take `Cc1cc(C(F)(F)F)nc(-c2ccc(O)cc2)n1`: the melting point was 131 to 132 °C.
